In publication PMC12620416 (Molecular Plant Pathology, 2025):
≈ marks a conversion by molar mass, not a printed value.

These molecules were tested on Xanthomonas oryzae pv. oryzae (Xoo) PXO99A (assay: microbe, parasite or virus in culture). Settings: read-out: EC50 (mg/L).

| SMILES | EC50 |
| --- | --- |
| C=C[C@]1(C)C[C@@H](OC(=O)CSc2ncc(OC)c(OS(=O)(=O)CC)n2)[C@]2(C)[C@H](C)CC[C@]3(CCC(=O)[C@H]32)[C@@H](C)[C@@H]1O [J1] | 0.41 ± 0.15 mg/L (≈ 0.671 µM) |
| C=C[C@]1(C)C[C@@H](OC(=O)CSc2ncc(OC)c(OS(=O)(=O)c3ccc(C)cc3)n2)[C@]2(C)[C@H](C)CC[C@]3(CCC(=O)[C@H]32)[C@@H](C)[C@@H]1O [J2] | 0.26 ± 0.17 mg/L (≈ 0.386 µM) |
| C=C[C@]1(C)C[C@@H](OC(=O)CSc2ncc(OC)c(OS(=O)(=O)c3ccc(C(F)(F)F)cc3)n2)[C@]2(C)[C@H](C)CC[C@]3(CCC(=O)[C@H]32)[C@@H](C)[C@@H]1O [J3] | 0.81 ± 0.08 mg/L (≈ 1.11 µM) |
| C=C[C@]1(C)C[C@@H](OC(=O)CSc2ncc(OC)c(OS(=O)(=O)c3c(F)cccc3F)n2)[C@]2(C)[C@H](C)CC[C@]3(CCC(=O)[C@H]32)[C@@H](C)[C@@H]1O [J4] | 0.34 ± 0.04 mg/L (≈ 0.489 µM) |
| C=C[C@]1(C)C[C@@H](OC(=O)CSc2ncc(OC)c(OS(=O)(=O)c3c(F)c(F)c(F)c(F)c3F)n2)[C@]2(C)[C@H](C)CC[C@]3(CCC(=O)[C@H]32)[C@@H](C)[C@@H]1O [J5] | 0.77 ± 0.56 mg/L (≈ 1.03 µM) |
| C=C[C@]1(C)C[C@@H](OC(=O)CSc2ncc(OC)c(OS(=O)(=O)c3c(C)c(C)c(C)c(C)c3C)n2)[C@]2(C)[C@H](C)CC[C@]3(CCC(=O)[C@H]32)[C@@H](C)[C@@H]1O [J6] | 0.33 ± 0.09 mg/L (≈ 0.453 µM) |
| C=C[C@]1(C)C[C@@H](OC(=O)CSc2ncc(OC)c(OS(=O)(=O)c3cccc(Br)c3)n2)[C@]2(C)[C@H](C)CC[C@]3(CCC(=O)[C@H]32)[C@@H](C)[C@@H]1O [J7] | 0.27 ± 0.11 mg/L (≈ 0.366 µM) |
| C=C[C@]1(C)C[C@@H](OC(=O)CSc2ncc(OC)c(O)n2)[C@]2(C)[C@H](C)CC[C@]3(CCC(=O)[C@H]32)[C@@H](C)[C@@H]1O [J9] | 0.12 ± 0.02 mg/L (≈ 0.231 µM) |
| C=C[C@]1(C)C[C@@H](OC(=O)CSc2ncc(OC)c(OS(=O)(=O)c3cccc(F)c3)n2)[C@]2(C)[C@H](C)CC[C@]3(CCC(=O)[C@H]32)[C@@H](C)[C@@H]1O [J10] | 0.2 ± 0.13 mg/L (≈ 0.295 µM) |
| C=C[C@]1(C)C[C@@H](OC(=O)CSc2ncc(OC)c(OS(=O)(=O)c3ccc(Br)cc3OC(F)(F)F)n2)[C@]2(C)[C@H](C)CC[C@]3(CCC(=O)[C@H]32)[C@@H](C)[C@@H]1O [J11] | 0.39 ± 0.27 mg/L (≈ 0.475 µM) |
| C=C[C@]1(C)C[C@@H](OC(=O)CSc2ncc(OC)c(OS(=O)(=O)c3cccc(Cl)c3F)n2)[C@]2(C)[C@H](C)CC[C@]3(CCC(=O)[C@H]32)[C@@H](C)[C@@H]1O [J12] | 0.26 ± 0.12 mg/L (≈ 0.366 µM) |
| C=C[C@]1(C)C[C@@H](OC(=O)CSc2ncc(OC)c(OS(=O)(=O)c3cc(Br)c(F)cc3F)n2)[C@]2(C)[C@H](C)CC[C@]3(CCC(=O)[C@H]32)[C@@H](C)[C@@H]1O [J13] | 0.22 ± 0.05 mg/L (≈ 0.284 µM) |
| C=C[C@]1(C)C[C@@H](OC(=O)CSc2ncc(OC)c(OS(=O)(=O)c3ccc(Cl)cc3Br)n2)[C@]2(C)[C@H](C)CC[C@]3(CCC(=O)[C@H]32)[C@@H](C)[C@@H]1O [J14] | 0.3 ± 0.02 mg/L (≈ 0.389 µM) |
| C=C[C@]1(C)C[C@@H](OC(=O)CSc2ncc(OC)c(OS(=O)(=O)C3CC3)n2)[C@]2(C)[C@H](C)CC[C@]3(CCC(=O)[C@H]32)[C@@H](C)[C@@H]1O [J15] | 0.37 ± 0.09 mg/L (≈ 0.594 µM) |
| C=C[C@]1(C)C[C@@H](OC(=O)CSc2ncc(OC)c(OS(=O)(=O)c3ccc(F)cc3)n2)[C@]2(C)[C@H](C)CC[C@]3(CCC(=O)[C@H]32)[C@@H](C)[C@@H]1O [J16] | 0.26 ± 0.03 mg/L (≈ 0.384 µM) |
| C=C[C@]1(C)C[C@@H](OC(=O)CSc2ncc(OC)c(OS(=O)(=O)c3ccc(F)c(F)c3F)n2)[C@]2(C)[C@H](C)CC[C@]3(CCC(=O)[C@H]32)[C@@H](C)[C@@H]1O [J17] | 0.22 ± 0.09 mg/L (≈ 0.309 µM) |
| C=C[C@]1(C)C[C@@H](OC(=O)CSc2ncc(OC)c(OS(=O)(=O)c3ccc(C#N)cc3)n2)[C@]2(C)[C@H](C)CC[C@]3(CCC(=O)[C@H]32)[C@@H](C)[C@@H]1O [J18] | 0.29 ± 0.09 mg/L (≈ 0.424 µM) |
| C=C[C@]1(C)C[C@@H](OC(=O)CSc2ncc(OC)c(OS(=O)(=O)c3c(C)cc(C)cc3C)n2)[C@]2(C)[C@H](C)CC[C@]3(CCC(=O)[C@H]32)[C@@H](C)[C@@H]1O [J19] | 0.16 ± 0.06 mg/L (≈ 0.228 µM) |
| C=C[C@]1(C)C[C@@H](OC(=O)CSc2ncc(OC)c(OS(=O)(=O)c3c(C)c(C)cc(C)c3C)n2)[C@]2(C)[C@H](C)CC[C@]3(CCC(=O)[C@H]32)[C@@H](C)[C@@H]1O [J20] | 0.35 ± 0.06 mg/L (≈ 0.49 µM) |
| C=C[C@]1(C)C[C@@H](OC(=O)CSc2ncc(OC)c(OS(=O)(=O)CCCC)n2)[C@]2(C)[C@H](C)CC[C@]3(CCC(=O)[C@H]32)[C@@H](C)[C@@H]1O [J21] | 2.79 ± 0.39 mg/L (≈ 4.37 µM) |
| C=C[C@]1(C)C[C@@H](OC(=O)CSc2ncc(OC)c(OS(=O)(=O)c3ccc(Cl)cc3)n2)[C@]2(C)[C@H](C)CC[C@]3(CCC(=O)[C@H]32)[C@@H](C)[C@@H]1O [J22] | 0.34 ± 0.17 mg/L (≈ 0.49 µM) |
| C=C[C@]1(C)C[C@@H](OC(=O)CSc2ncc(OC)c(OS(=O)(=O)c3ccc(CC)cc3)n2)[C@]2(C)[C@H](C)CC[C@]3(CCC(=O)[C@H]32)[C@@H](C)[C@@H]1O [J23] | 0.58 ± 0.07 mg/L (≈ 0.844 µM) |
| C=C[C@]1(C)C[C@@H](OC(=O)CSc2ncc(OC)c(OS(=O)(=O)c3ccc(OC(F)(F)F)cc3)n2)[C@]2(C)[C@H](C)CC[C@]3(CCC(=O)[C@H]32)[C@@H](C)[C@@H]1O [J24] | 0.26 ± 0.05 mg/L (≈ 0.35 µM) |

The molecules below were run against T1, ISXoo15 transposase (Xanthomonas oryzae, UniProt A0A0K0GFE1) (assay: biochemical). Settings: not given.
T1 construct: gene PXO_03433
T1 sequence (A0A0K0GFE1 1-315): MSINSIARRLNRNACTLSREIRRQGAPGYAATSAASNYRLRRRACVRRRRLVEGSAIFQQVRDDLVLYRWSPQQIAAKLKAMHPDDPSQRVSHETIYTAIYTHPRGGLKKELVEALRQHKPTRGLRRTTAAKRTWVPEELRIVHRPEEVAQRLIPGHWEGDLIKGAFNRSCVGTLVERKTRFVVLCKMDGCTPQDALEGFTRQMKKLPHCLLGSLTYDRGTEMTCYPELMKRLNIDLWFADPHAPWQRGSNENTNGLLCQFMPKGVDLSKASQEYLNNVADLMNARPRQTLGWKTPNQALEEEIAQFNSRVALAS

| SMILES | Kd |
| --- | --- |
| C=C[C@]1(C)C[C@@H](OC(=O)CSc2ncc(OC)c(O)n2)[C@]2(C)[C@H](C)CC[C@]3(CCC(=O)[C@H]32)[C@@H](C)[C@@H]1O [J9] | 187 nM |
